This is an account of results in paper PMC12251482, “Floridoside Phosphotriester Derivatives: Synthesis and Inhibition of Human Neutrophils’ Oxidative Burst” (Molecules, 2025).

Data set [1] concerns human neutrophils. Briefly: Neutrophils' apoptosis versus necrosis, Annexin V/PI flow cytometry. Format: cell-based. The following applies: for Cytotoxicity in neutrophils: 45 min; for Induction of late apoptosis in neutrophils: Figure S154. As to the method: (§1) The effect of the compounds under study on neutrophil viability was evaluated using flow cytometry. This assessment involved staining with Annexin V (AV) and propidium iodide (PI) from the BD Pharmingen™ FITC Annexin V Apoptosis Detection Kit, following the manufacturer’s protocol. […] Afterwards, the content of each well was transferred to a conical microtube and centrifuged at 400× g, at 20 °C, for 5 min. The neutrophils’ pellets were resuspended in PBS and centrifuged again under the previous conditions. The supernatant was removed, and the solution of Annexin V and PI from the kit was added, resuspending the pellet. The neutrophils were incubated in the dark at room temperature for 15 min and then diluted (dilution factor = 6) with the diluted binding buffer. […] In the flow cytometer, the fluorescence signal of at least 10,000 neutrophils per sample was collected in logarithmic mode and followed in channels 1 and 3. A polygon gate, corresponding to the neutrophil’s population, was drawn according to the light-scattering properties of neutrophils in a forward versus scatter plot. Thus, debris and other blood cells were unaccounted for in the samples. The green fluorescence corresponding to Annexin V was monitored in channel 1 and plotted as a histogram of FL1 staining, whereas the fluorescence corresponding to PI was monitored in channel 3 and plotted in the same histogram as FL3 staining. Neutrophils’ cell death was expressed as a relative percentage of viable, apoptotic, late apoptotic, and necrotic cells compared to a negative control (untreated cells).
(§2) The eﬀect of the compounds under study on neutrophil viability was evaluated using ﬂow cytometry.
(§3) This assessment involved staining with Annexin V (AV) and propidium iodide (PI) from the BD Pharmingen™ FITC Annexin V Apoptosis Detection Kit, following the manufacturer's protocol. Neutrophils (1 x10^6 cells/mL) were incubated in a 24-well plate in the dark at 37 °C for 45 minutes with the positive control (Triton X-100, […]
(§4) Afterwards, the content of each well was transferred to a conical microtube and centrifuged at 400g, at 20 °C, for 5 minutes. The neutrophils’ pellets were resuspended in PBS and centrifuged again under the previous conditions. The supernatant was removed, and the solution of Annexin V and PI from the kit was added, resuspending the pellet. The neutrophils were incubated in the dark at room temperature for 15 minutes and then diluted (dilution factor = 6) with the diluted binding buﬀer. The measurements were performed in a n Accuri C6 ﬂow cytometer (BD, Becton, Dickinson and Company, Franklin Lakes, NJ, USA), and the results were treated with BD Accuri™ C6 software. In the ﬂow cytometer, the ﬂuorescence signal of at least 10,000 neutrophils per sample was collected in logarithmic mode and followed in channels 1 and 3. A polygon gate, corresponding to the neutrophil’s population, was drawn according to the light-scattering properties of neutrophils in a forward vs scatter plot. Thus, debris and other blood cells were unaccounted for in the samples.
(§5) The green ﬂuorescence corresponding to Annexin V was monitored in channel 1 and plotted as a histogram of FL1 staining, whereas the ﬂuorescence corresponding to PI was monitored in channel 3 and plotted in the same histogram as FL3 staining. Neutrophils’ cell death was expressed as a relative percentage of viable, apoptotic, late apoptotic, and necrotic cells compared to a negative control (untreated cells). […]

Data set [2] deals with PMA-stimulated human neutrophils. The data set can be described thus: H2O2 generation by PMA-stimulated neutrophils, oxidation of Amplex Red. It counts as cell-based. The following applies: PMA 160 nM, mean ± SEM. As to the method: Amplex Red is a highly sensitive and chemically stable fluorescent probe for the extracellular detection of H2O2 [82]. The methodology used previously for monitoring the modulation of the oxidative burst was adapted. In a 96-well plate, neutrophils (2 × 10^6 cells/mL) were incubated in the dark at 37 °C for 5 min with Amplex Red (25 μM), horseradish peroxidase (0.25 U/mL), and the compounds under study (10–100 μM) or DMSO (4%). Quercetin (0.3–5.0 μM) and DPI (0.01–10 μM) were used as controls. After incubation, PMA (160 nM) was added, and the fluorescence (excitation at 530 nm and emission at 590 nm) was measured in a microplate reader (Synergy HT, BioTek Instruments, Inc., Winooski, VT, USA). Obtained values correspond to the slope measured between 5 and 10 min. Effects are expressed as the percentage inhibition of Amplex Red oxidation. The results obtained represent at least three independent experiments. […] 3.4.3 Oxidation of Amplex Red
Amplex Red is a highly sensitive and chemically stable ﬂuorescent probe for the extracellular detection of H2O2 [16]. The methodology used previously for monitoring the modulation of the oxidative burst was adapted.
In a 96-well plate, neutrophils (2 x 10^6 cells/mL) were incubated in the dark at 37 °C for 5 minutes with Amplex Red (25 µM), horseradish peroxidase (0.25 U/mL) , and the compounds under study (10 - 100 µM) or DMSO (4%). Quercetin (0.3 - 5.0 µM) and DPI (0.01 - 10 µM) were used as positive controls for inhibition. After incubation, PMA (160 nM) was added, and the ﬂuorescence (excitation at 530 nm and emission at 590 nm) was measured in a microplate reader (Synergy HT, BioTek Instruments, Inc., Winooski, VT, USA). Obtained values correspond to the slope measured between 5 and 10 minutes. Eﬀects are expressed as the percentage inhibition of Amplex Red oxidation. The obtained results represent at least three independent experiments.
GraphPad Prism 6 software was used to plot the inhibition percentage versus compound concentration curves, enabling the determination of the concentration required to achieve 50% inhibition (IC50). GraphPad Prism 6 software was also used to perform all statistical analyses.
[…] was estimated by applying the one-way analysis (ANOVA), followed by the Bonferroni’s multiple comparisons test. In all cases, p-values < 0.05 were considered statistically signiﬁcant. The results are expressed as mean ± standard error of the mean (SEM).

The nature of data set [3]: Neutrophils' apoptosis versus necrosis, Annexin V/PI flow cytometry. Particulars: human; 50 μM; representative plot, Figure 2; read-out: Q2-LL, viable cells (AV−/PI−). It counts as cell-based, human. How it is done: as §1, §2, §3, §4, §5
In general terms: In flow cytometry, cells or beads pass a laser one at a time.

Where [4] appears, read: tested concentrations, up to 100 μM.

With “3-Hydroxy-2-(galactopyranosyl)propyl dodecanoate [Compound 1e]”, the Cytotoxicity in neutrophils entry in data set [1] (50 μM) is recorded as “no cytotoxicity”; in data set [1] (setting [4]), “non-cytotoxic”. For the same compound, the “Amplex Red: highest obtained % of inhibition” value in data set [2] (at 50 µM) is given as below 20% ^50µM.

Regarding “3-Hydroxy-2-galactopyranosylpropyl dioctyl phosphate [Compound 1b]”, the Cytotoxicity in neutrophils entry in data set [1] (25 μM) was “did not exhibit significant cytotoxicity”. In addition, in data set [1] (50 μM), the Cytotoxicity in neutrophils entry was “cytotoxic effects” and the “Induction of late apoptosis in neutrophils” value is on record as “induce late apoptosis”. Also, in data set [2] (at 25 µM), the “Amplex Red: highest obtained % of inhibition” value is reported as below 20% ^25µM.

In general, inhibition refers to the share of the control response that was lost under treatment. In the case of `OCC(CO)OC1OC(CO)C(O)C(O)C1O` [Compound 1a, 2-O-D-(galactopyranosyl)glycerol], the Cytotoxicity in neutrophils result in data set [1] (setting [4]) is “no cytotoxic activity”. The inhibition at 50 µM in data set [2] (Homo sapiens, Neutrophil, at 50 µM, read-out: Amplex Red: highest obtained % of inhibition) was below 20%.

As to `CCCCCCCCCCCC(=O)OCC(CO)OC1OC(COP(=O)(OCCN)OCCN)C(O)C(O)C1O` (centres unmarked) [Compound 1h, 2-(6-(bis(2-Aminoethoxy))phosphoryl)galactopyranosyl-3-hydroxypropyl dodecanoate], the Cytotoxicity in neutrophils result in data set [1] (25 μM) is “did not exhibit significant cytotoxicity”. Further, in data set [1] (50 μM), the Cytotoxicity in neutrophils result is recorded as “cytotoxic effects” and the “Induction of late apoptosis in neutrophils” value was “induce late apoptosis”. For the same compound, the viability at 45 min, 50 µM in data set [3] is 53%. The inhibition at 25 µM in data set [2] (Homo sapiens, Neutrophil, at 25 µM, read-out: Amplex Red: highest obtained % of inhibition) was below 20%.
